# Measurements taken from patent US20150284305A1, “FLUORINE-CONTAINING COMPOUND AND METHOD FOR PRODUCING SAME” (Asahi Glass Company, Limited, priority 2012, published 2015).
# Assay: Solubility test: 20 mg sample in 10 g solvent, evaluated visually
# Assay type: physicochemical
# Conditions: 20 mg in 10 g solvent (0.2 mass %), room temperature / 25° C., visual
# Method: For evaluating the applicability thereof to a wet process, the compound to be analyzed was tested in a dissolution test in various solvents. As a comparative case, anthracene was tested for the dissolution test.
# Concretely, 20 mg of the sample was weighed, and the solubility thereof (0.2 mass %) in 10 g of a solvent at room temperature was visually evaluated.
# In Table 1, A means soluble, and B means insoluble. The standard of “soluble” was set as the case where the compound dissolved in an amount of 0.2% by mass or more at a solvent temperature of 25° C.
compound,measurement,setting,value
"c1ccc2cc3ccccc3cc2c1 [Comparative Example 3, Anthracene]",Solubility Test Cyclohexane,cyclohexane,B (B means insoluble)
same,Solubility Test Hexane,hexane,B (B means insoluble)
